The values below come from patent US20220251163A1 (Sinopep-Allsino Biopharmaceutical Co., Ltd., priority 2019, published 2022).

Assay [1] addresses T1, mGLP-1R (Mus musculus, UniProt O35659).
T1 construct: expressed in transfected cells; host or cells: HEK293
T1 sequence (O35659 22-463): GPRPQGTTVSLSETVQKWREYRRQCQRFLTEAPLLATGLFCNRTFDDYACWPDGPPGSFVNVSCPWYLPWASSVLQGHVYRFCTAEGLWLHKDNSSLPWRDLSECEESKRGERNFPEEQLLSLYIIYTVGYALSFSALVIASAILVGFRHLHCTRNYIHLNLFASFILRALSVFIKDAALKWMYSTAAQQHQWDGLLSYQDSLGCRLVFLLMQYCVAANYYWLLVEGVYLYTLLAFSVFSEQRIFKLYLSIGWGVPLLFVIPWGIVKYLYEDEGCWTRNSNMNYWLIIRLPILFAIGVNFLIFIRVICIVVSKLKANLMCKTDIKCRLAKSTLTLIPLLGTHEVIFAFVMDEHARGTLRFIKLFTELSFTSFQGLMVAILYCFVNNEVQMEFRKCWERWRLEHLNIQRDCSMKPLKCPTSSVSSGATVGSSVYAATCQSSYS
Put plainly: GLP-1R agonist activity, cAMP in transfected HEK293 cells. In kind it is cell-based. The conditions noted are these: HEK293 cells transfected with GLP-1R, cAMP, 20 min incubation; read-out: mGLP-1R EC50.

Assay [2] concerns the target T2, mGIPR (Mus musculus, UniProt Q0P543).
T2 construct: expressed in transfected cells; host or cells: HEK293
T2 sequence (Q0P543 19-460): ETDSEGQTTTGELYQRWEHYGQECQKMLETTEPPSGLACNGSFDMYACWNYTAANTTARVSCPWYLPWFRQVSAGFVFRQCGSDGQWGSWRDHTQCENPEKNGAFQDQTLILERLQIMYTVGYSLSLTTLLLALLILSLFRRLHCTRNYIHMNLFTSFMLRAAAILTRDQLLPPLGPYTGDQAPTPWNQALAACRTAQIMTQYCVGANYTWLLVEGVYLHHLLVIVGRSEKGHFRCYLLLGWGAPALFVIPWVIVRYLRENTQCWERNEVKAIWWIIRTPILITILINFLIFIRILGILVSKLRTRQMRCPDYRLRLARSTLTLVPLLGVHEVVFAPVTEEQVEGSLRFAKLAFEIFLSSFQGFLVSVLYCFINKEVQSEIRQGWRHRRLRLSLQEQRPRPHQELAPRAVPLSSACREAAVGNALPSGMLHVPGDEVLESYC
Put plainly: GIPR agonist activity, cAMP in transfected HEK293 cells. The conditions noted are these: HEK293 cells transfected with GIPR, cAMP, 20 min incubation; read-out: mGIPR EC50. In kind it is cell-based.
Protocol: HEK293 cells were co-transfected with cDNA encoding GLP-1R or GIPR. In a test for determining the compound, the cells were inoculated in a 96-well plate 2 h in advance, the polypeptide compound was dissolved with DMSO, and diluted to different multiples with a culture medium containing 0.1% bovine serum albumin and added to the co-transfected cells.

Where a SMILES comes first, the peptide text is derived from it.

The EC50 is the concentration needed to bring the measured effect to its halfway point. Turning to `CCCCCCCCCCCCCCCC(=O)N[C@@H](CCC(=O)NCCCC[C@H](NC(=O)[C@H](CCC(N)=O)NC(=O)[C@H](C)NC(=O)[C@@H](NC(=O)[C@H](CCCCN)NC(=O)[C@H](CC(=O)O)NC(=O)[C@H](CC(C)C)NC(=O)C(C)(C)NC(=O)[C@@H](NC(=O)[C@H](CO)NC(=O)[C@H](Cc1ccc(O)cc1)NC(=O)[C@H](CC(=O)O)NC(=O)[C@H](CO)NC(=O)[C@@H](NC(=O)[C@H](Cc1ccccc1)NC(=O)[C@@H](NC(=O)CNC(=O)[C@H](CCC(=O)O)NC(=O)[C@H](C)NC(=O)[C@@H](N)Cc1ccc(O)cc1)[C@@H](C)O)[C@@H](C)O)[C@@H](C)CC)[C@@H](C)CC)C(=O)N[C@@H](C)C(=O)N[C@@H](Cc1ccccc1)C(=O)N[C@H](C(=O)N[C@@H](CCC(N)=O)C(=O)N[C@@H](Cc1c[nH]c2ccccc12)C(=O)N[C@@H](CC(C)C)C(=O)N[C@H](C(=O)N[C@@H](C)C(=O)NCC(=O)NCC(=O)N1CCC[C@H]1C(=O)N[C@@H](CO)C(=O)N[C@@H](CO)C(=O)NCC(=O)N[C@@H](C)C(=O)N1CCC[C@H]1C(=O)N1CCC[C@H]1C(=O)N1CCC[C@H]1C(=O)N[C@@H](CO)C(N)=O)[C@@H](C)CC)C(C)C)C(=O)O` [ID NO: 16] (HELM PEPTIDE1{Y.A.E.G.T.F.T.S.D.Y.S.I.[Aib].L.D.K.I.A.Q.K.A.F.V.Q.W.L.I.A.G.G.P.S.S.G.A.P.P.P.S.[am]}|PEPTIDE2{[CCCCCCCCCCCCCCCC(=O)[*:2]].[gGlu]}$PEPTIDE1,PEPTIDE2,20:R3-2:R2$$$V2.0), the EC50 in assay [1] stood at 0.0425 nM; in assay [2], 9.65 pM.

With `CCCCCCCCCCCCCCCC(=O)N[C@@H](CCC(=O)NCCCC[C@H](NC(=O)[C@H](CCC(N)=O)NC(=O)[C@H](C)NC(=O)[C@@H](NC(=O)[C@H](CCCCN)NC(=O)[C@H](CC(=O)O)NC(=O)[C@H](CC(C)C)NC(=O)C1(NC(=O)[C@@H](NC(=O)[C@H](CO)NC(=O)[C@H](Cc2ccc(O)cc2)NC(=O)[C@H](CC(=O)O)NC(=O)[C@H](CO)NC(=O)[C@@H](NC(=O)[C@H](Cc2ccccc2)NC(=O)[C@@H](NC(=O)CNC(=O)[C@H](CCC(=O)O)NC(=O)C2(NC(=O)[C@@H](N)Cc3ccc(O)cc3)CCCC2)[C@@H](C)O)[C@@H](C)O)[C@@H](C)CC)CCCC1)[C@@H](C)CC)C(=O)N[C@@H](C)C(=O)N[C@@H](Cc1ccccc1)C(=O)N[C@H](C(=O)N[C@@H](CCC(N)=O)C(=O)N[C@@H](Cc1c[nH]c2ccccc12)C(=O)N[C@@H](CC(C)C)C(=O)N[C@H](C(=O)N[C@@H](C)C(=O)NCC(=O)NCC(=O)N1CCC[C@H]1C(=O)N[C@@H](CO)C(=O)N[C@@H](CO)C(=O)NCC(=O)N[C@@H](C)C(=O)N1CCC[C@H]1C(=O)N1CCC[C@H]1C(=O)N1CCC[C@H]1C(=O)N[C@@H](CO)C(N)=O)[C@@H](C)CC)C(C)C)C(=O)O` [ID NO: 14], the EC50 in assay [1] is 0.0311 nM; in assay [2] it was 51.7 pM.

Consider `CCCCCCCCCCCCCCCC(=O)N[C@@H](CCC(=O)NCCCC[C@H](NC(=O)[C@H](CCC(N)=O)NC(=O)[C@H](C)NC(=O)[C@@H](NC(=O)[C@H](CCCCN)NC(=O)[C@H](CC(=O)O)NC(=O)[C@H](CC(C)C)NC(=O)C(C)(C)NC(=O)[C@@H](NC(=O)[C@H](CO)NC(=O)[C@H](Cc1ccc(O)cc1)NC(=O)[C@H](CC(=O)O)NC(=O)[C@H](CO)NC(=O)[C@@H](NC(=O)[C@H](Cc1ccccc1)NC(=O)[C@@H](NC(=O)CNC(=O)[C@H](CCC(=O)O)NC(=O)C(C)(C)NC(=O)[C@@H](N)Cc1ccc(O)cc1)[C@@H](C)O)[C@@H](C)O)[C@@H](C)CC)[C@@H](C)CC)C(=O)N[C@@H](C)C(=O)N[C@@H](Cc1ccccc1)C(=O)N[C@H](C(=O)N[C@@H](CCC(N)=O)C(=O)N[C@@H](Cc1c[nH]c2ccccc12)C(=O)N[C@@H](CC(C)C)C(=O)N[C@H](C(=O)N[C@@H](C)C(=O)NCC(=O)NCC(=O)N1CCC[C@H]1C(=O)N[C@@H](CO)C(=O)N[C@@H](CO)C(=O)NCC(=O)N[C@@H](C)C(=O)N1CCC[C@H]1C(=O)N1CCC[C@H]1C(=O)N1CCC[C@H]1C(=O)N[C@@H](CO)C(N)=O)[C@@H](C)CC)C(C)C)C(=O)O` [ID NO: 11], for which the EC50 in assay [1] was found to be 0.0243 nM; in assay [2], 6.32 pM.

With `CC[C@H](C)[C@H](NC(=O)[C@H](CC(C)C)NC(=O)[C@H](Cc1c[nH]c2ccccc12)NC(=O)[C@H](CCC(N)=O)NC(=O)[C@@H](NC(=O)[C@H](Cc1ccccc1)NC(=O)[C@H](C)NC(=O)[C@H](CCCCNC(=O)COCCOCCNC(=O)COCCOCCNC(=O)CC[C@H](NC(=O)CCCCCCCCCCCCCCCCC(=O)O)C(=O)O)NC(=O)[C@H](CCC(N)=O)NC(=O)[C@H](C)NC(=O)[C@@H](NC(=O)[C@H](CCCCN)NC(=O)[C@H](CC(=O)O)NC(=O)[C@H](CC(C)C)NC(=O)C1(NC(=O)[C@@H](NC(=O)[C@H](CO)NC(=O)[C@H](Cc2ccc(O)cc2)NC(=O)[C@H](CC(=O)O)NC(=O)[C@H](CO)NC(=O)[C@@H](NC(=O)[C@H](Cc2ccccc2)NC(=O)[C@@H](NC(=O)CNC(=O)[C@H](CCC(=O)O)NC(=O)C(C)(C)NC(=O)[C@@H](N)Cc2ccc(O)cc2)[C@@H](C)O)[C@@H](C)O)[C@@H](C)CC)CCCC1)[C@@H](C)CC)C(C)C)C(=O)N[C@@H](C)C(=O)NCC(=O)NCC(=O)N1CCC[C@H]1C(=O)N[C@@H](CO)C(=O)N[C@@H](CO)C(=O)NCC(=O)N[C@@H](C)C(=O)N1CCC[C@H]1C(=O)N1CCC[C@H]1C(=O)N1CCC[C@H]1C(=O)N[C@@H](CO)C(N)=O` [ID NO: 10], the EC50 in assay [1] is 0.00889 nM; in assay [2] it was 8.11 pM.

As for `CCCCCCCCCCCCCCCC(=O)N[C@@H](CCC(=O)NCCCC[C@H](NC(=O)[C@H](CCC(N)=O)NC(=O)[C@H](C)NC(=O)[C@@H](NC(=O)[C@H](CCCCN)NC(=O)[C@H](CC(=O)O)NC(=O)[C@H](CC(C)C)NC(=O)C(C)(C)NC(=O)[C@@H](NC(=O)[C@H](CO)NC(=O)[C@H](Cc1ccc(O)cc1)NC(=O)[C@H](CC(=O)O)NC(=O)[C@H](CO)NC(=O)[C@@H](NC(=O)[C@H](Cc1ccccc1)NC(=O)[C@@H](NC(=O)CNC(=O)[C@H](CCC(=O)O)NC(=O)C1(NC(=O)[C@@H](N)Cc2ccc(O)cc2)CCCC1)[C@@H](C)O)[C@@H](C)O)[C@@H](C)CC)[C@@H](C)CC)C(=O)N[C@@H](C)C(=O)N[C@@H](Cc1ccccc1)C(=O)N[C@H](C(=O)N[C@@H](CCC(N)=O)C(=O)N[C@@H](Cc1c[nH]c2ccccc12)C(=O)N[C@@H](CC(C)C)C(=O)N[C@H](C(=O)N[C@@H](C)C(=O)NCC(=O)NCC(=O)N1CCC[C@H]1C(=O)N[C@@H](CO)C(=O)N[C@@H](CO)C(=O)NCC(=O)N[C@@H](C)C(=O)N1CCC[C@H]1C(=O)N1CCC[C@H]1C(=O)N1CCC[C@H]1C(=O)N[C@@H](CO)C(N)=O)[C@@H](C)CC)C(C)C)C(=O)O` [ID NO: 20], the concentration for a half-maximal effect (EC50) stood at 0.0159 nM in assay [1] and 5.91 pM in assay [2].

With `CCCCCCCCCCCCCCCC(=O)N[C@@H](CCC(=O)NCCCC[C@H](NC(=O)[C@H](CCC(N)=O)NC(=O)[C@H](C)NC(=O)[C@@H](NC(=O)[C@H](CCCCN)NC(=O)[C@H](CC(=O)O)NC(=O)[C@H](CC(C)C)NC(=O)C(C)(C)NC(=O)[C@@H](NC(=O)[C@H](CO)NC(=O)[C@H](Cc1ccc(O)cc1)NC(=O)[C@H](CC(=O)O)NC(=O)[C@H](CO)NC(=O)[C@@H](NC(=O)[C@H](Cc1ccccc1)NC(=O)[C@@H](NC(=O)CNC(=O)[C@H](CCC(=O)O)NC(=O)C1(NC(=O)[C@@H](N)Cc2ccc(O)cc2)CCC1)[C@@H](C)O)[C@@H](C)O)[C@@H](C)CC)[C@@H](C)CC)C(=O)N[C@@H](C)C(=O)N[C@@H](Cc1ccccc1)C(=O)N[C@H](C(=O)N[C@@H](CCC(N)=O)C(=O)N[C@@H](Cc1c[nH]c2ccccc12)C(=O)N[C@@H](CC(C)C)C(=O)N[C@H](C(=O)N[C@@H](C)C(=O)NCC(=O)NCC(=O)N1CCC[C@H]1C(=O)N[C@@H](CO)C(=O)N[C@@H](CO)C(=O)NCC(=O)N[C@@H](C)C(=O)N1CCC[C@H]1C(=O)N1CCC[C@H]1C(=O)N1CCC[C@H]1C(=O)N[C@@H](CO)C(N)=O)[C@@H](C)CC)C(C)C)C(=O)O` [ID NO: 18], the EC50 amounted to 0.00902 nM in assay [1] and 8.33 pM in assay [2].
